“And” between values parts separate entries of the source, which are not always exact repeats. Equal entries are not always repeated.
CN(C)c1ccc(/N=N/c2ccc(N=C=S)cc2)cc1 [4-dimethylaminoazobenzene-4'-isothiocyanate] gave a melting point of 170 °C. Work on CN(C)c1ccc(C=O)cc1 [4-dimethylaminobenzaldehyde] yielded a melting point of 74 °C. Compound CCOc1ccc(NC(C)=O)cc1 [4-ethoxyacetanilide] has a melting point of 135 °C. For CCc1ccc(N)cc1 [4-ethylaniline], the melting point was -5 °C. Compound OB(O)c1ccc(F)cc1C(F)(F)F [4-fluoro-2-(trifluoromethyl)benzeneboronic acid] has a melting point of 185 °C. COc1cc(F)ccc1C(=O)O [4-fluoro-2-methoxybenzoic acid] gave a melting point of 135 °C. Cc1cc(O)ccc1F [4-fluoro-3-methylphenol] gave a melting point of 30 °C. Work on O=C(O)COc1ccc(F)cc1 [4-fluorophenoxyacetic acid] yielded a melting point of 105 °C. O=Cc1ccc(B(O)O)cc1 [4-formylbenzeneboronic acid] gave a melting point of 263 °C. O=Cc1ccc(O)c([N+](=O)[O-])c1 [4-hydroxy-3-nitrobenzaldehyde] gave a melting point of 142 °C. In the case of O=C(O)c1ccc(O)c([N+](=O)[O-])c1 [4-hydroxy-3-nitrobenzoic acid], the melting point is reported as 183 °C. CC(=O)CC(C)(C)O [4-hydroxy-4-methyl-2-pentanone] gave a melting point of -47 °C. In the case of Cc1cccc2c(O)cc(C(F)(F)F)nc12 [4-hydroxy-8-methyl-2-(trifluoromethyl)quinoline], the melting point is reported as 128 °C. NC(=O)c1ccc(O)cc1 [4-hydroxybenzamide] showed a melting point of 161 °C. With O=C(O)c1ccc(O)cc1 [4-hydroxybenzoic acid] the melting point was 214 °C and 215 °C. In the case of N#Cc1ccc(O)cc1 [4-hydroxybenzonitrile], the melting point is reported as 112 °C. In the case of OCc1ccc(O)cc1 [4-hydroxybenzyl_alcohol], the melting point is reported as 112 °C. For Oc1ccc(Nc2ccccc2)cc1 [4-hydroxydiphenylamine], the melting point was 69 °C. Work on Oc1ccnc2ccccc12 [4-hydroxyquinoline] yielded a melting point of 203 °C. For O=C(O)c1ccc(I)cc1 [4-iodobenzoic acid], the melting point was 270 °C. For OCc1ccc(I)cc1 [4-iodobenzyl alcohol], the melting point was 73 °C. For S=C=Nc1ccc(I)cc1 [4-iodophenyl isothiocyanate], the melting point was 76 °C. With N#CCc1ccc(I)cc1 [4-iodophenylacetonitrile] the melting point was 53 °C. For CC(C)c1ccc(B(O)O)cc1 [4-isopropylbenzeneboronic acid], the melting point was 143 °C. For CC(C)c1ccc(C(=O)O)cc1 [4-isopropylbenzoic acid], the melting point was 119 °C. In the case of CC(C)c1ccc(O)cc1 [4-isopropylphenol], the melting point is reported as 60 °C and 61 °C. In the case of COc1ccc(B(O)O)c(C(F)(F)F)c1 [4-methoxy-2-(trifluoromethyl)benzeneboronic acid], the melting point is reported as 170 °C. With COc1ccc(N=C=S)c([N+](=O)[O-])c1 [4-methoxy-2-nitrophenyl isothiocyanate] the melting point was 92 °C. In the case of COc1ccc(B(O)O)cc1C [4-methoxy-3-methylbenzeneboronic acid], the melting point is reported as 215 °C. In the case of COc1ccc(C(=O)O)cc1 [4-methoxybenzoic acid], the melting point is reported as 184 °C. In the case of COc1ccc(C(=O)OC(=O)c2ccc(OC)cc2)cc1 [4-methoxybenzoic anhydride], the melting point is reported as 97 °C. Compound COc1ccc(C#N)cc1 [4-methoxybenzonitrile] has a melting point of 59 °C. Compound COc1ccc(C(=O)c2ccccc2)cc1 [4-methoxybenzophenone] has a melting point of 62 °C. Compound COc1ccc(C(=O)CC#N)cc1 [4-methoxybenzoylacetonitrile] has a melting point of 128 °C. COc1cc(=O)oc2ccccc12 [4-methoxycoumarin] showed a melting point of 124 °C. In the case of COc1ccc(C(O)C(=O)O)cc1 (stereo unspecified) [4-methoxymandelic acid], the melting point is reported as 107 °C. For COc1ccc(CC(=O)O)cc1 [4-methoxyphenylacetic acid], the melting point was 87 °C. Work on Cc1nc(-c2ccccn2)sc1C(=O)O [4-methyl-2-(2-pyridyl)thiazole-5-carboxylic acid] yielded a melting point of 226 °C. In the case of Cc1nc(-c2cccnc2)sc1C(=O)O [4-methyl-2-(3-pyridyl)thiazole-5-carboxylic acid], the melting point is reported as 246 °C. Compound CC(=O)CC(C)C [4-methyl-2-pentanone] has a melting point of -84 °C. With Cc1ccc(N)cc1[N+](=O)[O-] [4-methyl-3-nitroaniline] the melting point was 77 °C. C/C=C\C(C)C [4-methyl-cis-2-pentene] gave a melting point of -134 °C. C/C=C/C(C)C [4-methyl-trans-2-pentene] showed a melting point of -141 °C. For COc1ccc(C)cc1 [4-methylanisole], the melting point was -50 °C. In the case of Cc1ccc(C(=O)O)cc1 [4-methylbenzoic acid], the melting point is reported as 180 °C and 181 °C. In the case of Cc1cc[n+]([O-])cc1C(=O)NN [4-methylpyridine-3-carbohydrazide 1-oxide], the melting point is reported as 226 °C. Cc1cc(=O)oc2cc(O)ccc12 [4-methylumbelliferone] showed a melting point of 189 °C. Work on CCCCCCCOc1ccc(C(=O)O)cc1 [4-n-heptyloxybenzoic acid] yielded a melting point of 93 °C. For CCCCCCCCOc1ccc(C(=O)O)cc1 [4-n-octyloxybenzoic acid], the melting point was 103 °C. For CCCCCc1ccc(O)cc1 [4-n-pentylphenol], the melting point was 24 °C. With Cc1ccc([N+](=O)[O-])cc1C [4-nitro-1,2-dimethylbenzene] the melting point was 31 °C. O=[N+]([O-])c1ccc(O)c2ccccc12 [4-nitro-1-naphthol] showed a melting point of 166 °C. O=[N+]([O-])c1ccc(NS(=O)(=O)c2ccccc2)cc1 [4-nitro-1-phenylsulfonamidobenzene] gave a melting point of 138 °C. Cc1cc([N+](=O)[O-])cc[n+]1[O-] [4-nitro-2-picoline n-oxide] showed a melting point of 156 °C. Work on O=[N+]([O-])c1ccc(CS(=O)(=O)Cl)cc1 [4-nitro-alpha-toluenesulfonyl chloride] yielded a melting point of 92 °C. With Nc1ccc([N+](=O)[O-])cc1 [4-nitroaniline] [listing 1 of 2 here] the melting point was 148 °C. Nc1ccc([N+](=O)[O-])cc1 [4-nitroaniline] [listing 2 of 2 here] showed a melting point of 148 °C. In the case of O=[N+]([O-])c1ccc(C(F)(F)F)cc1 [4-nitrobenzotrifluoride], the melting point is reported as 40 °C. Compound O=C(Cl)c1ccc([N+](=O)[O-])cc1 [4-nitrobenzoyl chloride] has a melting point of 73 °C. O=[N+]([O-])c1ccc(CO)cc1 [4-nitrobenzyl alcohol] showed a melting point of 94 °C. For O=[N+]([O-])c1ccc(CBr)cc1 [4-nitrobenzyl bromide], the melting point was 99 °C. CC(=O)Oc1ccc([N+](=O)[O-])cc1 [4-nitrophenyl acetate] showed a melting point of 78 °C. O=[N+]([O-])c1ccc(Oc2ccccc2)cc1 [4-nitrophenyl phenyl ether] gave a melting point of 55 °C. In the case of O=C1NC(=O)c2cc([N+](=O)[O-])ccc21 [4-nitrophthalimide] [listing 1 of 2 here], the melting point is reported as 198 °C. O=C1NC(=O)c2cc([N+](=O)[O-])ccc21 [4-nitrophthalimide] [listing 2 of 2 here] gave a melting point of 202 °C. In the case of c1ccc(-c2csc(-c3cccnc3)n2)cc1 [4-phenyl-2-(3-pyridyl)thiazole], the melting point is reported as 54 °C. With c1ccc(N=Nc2ccc(Nc3ccccc3)cc2)cc1 [4-phenylazodiphenylamine] the melting point was 83 °C. O=C(O)CCCc1ccccc1 [4-phenylbutyric acid] showed a melting point of 51 °C. For Oc1ccc(-c2ccccc2)cc1 [4-phenylphenol], the melting point was 166 °C. For Cc1cc[n+]([O-])cc1 [4-picoline-N-oxide], the melting point was 186 °C and 184 °C. CC(C)(C)c1ccc(O)c(O)c1 [4-tert-butylcatechol] gave a melting point of 55 °C. CC(C)(C)C1CCC(=O)CC1 [4-tert-butylcyclohexanone] gave a melting point of 49 °C. O=C1CSC(=S)N1c1ccccc1 [4-thiazolidinone, 3-phenyl-2-thioxo-] gave a melting point of 240 °C. Work on CC1(C)OC(=O)NC1=O [5,5-dimethyloxazolidine-2,4-dione] yielded a melting point of 79 °C. Oc1c(Br)cc(Br)c2cccnc12 [5,7-dibromo-8-hydroxyquinoline] gave a melting point of 201 °C. Oc1c(Cl)cc(Cl)c2cccnc12 [5,7-dichloro-8-hydroxyquinoline] gave a melting point of 181 °C. In the case of Brc1ccccc1-c1nnn[nH]1 [5-(2-bromophenyl)-1h-tetrazole], the melting point is reported as 182 °C. Compound Cc1ccccc1C1C=C(c2ccccc2)N=N1 (stereo unspecified) [5-(2-methylphenyl)-3-phenyl-1H-pyrazole] has a melting point of 108 °C. Clc1cccc(-c2nnn[nH]2)c1 [5-(3-chlorophenyl)-1h-tetrazole] showed a melting point of 140 °C. c1ccc(Oc2cccc(-c3nnn[nH]3)c2)cc1 [5-(3-phenoxyphenyl)-1h-tetrazole] gave a melting point of 153 °C. Work on O=C(Nc1ccc([N+](=O)[O-])cc1Cl)c1cc(Cl)ccc1O [5-Chloro-N-(2-chloro-4-nitrophenyl)-2-hydroxybenzamide] yielded a melting point of 223 °C. For CCc1nnc(N)s1 [5-Ethyl-1,3,4-thiadiazol-2-amine], the melting point was 201 °C. For Cc1ccc2c(c1)no[n+]2[O-] [5-Methylbenzofurazan oxide], the melting point was 96 °C. CC(=O)c1ccc2c(c1)CCO2 [5-acetyl-2,3-dihydrobenzo[b]furan] showed a melting point of 58 °C. In the case of CC(=O)c1ccc(O)c(C(N)=O)c1 [5-acetylsalicylamide], the melting point is reported as 221 °C. C=CCC1(c2ccccc2)C(=O)NC(=O)NC1=O [5-allyl-5-phenylbarbiturate] gave a melting point of 158 °C. Compound NC(=O)c1c(-c2ccccc2)nn(-c2ccccc2)c1N [5-amino-1,3-diphenyl-1H-pyrazole-4-carboxamide] has a melting point of 200 °C. Nc1ccc2[nH]c(C(F)(F)F)nc2c1 [5-amino-2-(trifluoromethyl)benzimidazole] gave a melting point of 188 °C. In the case of N#Cc1cccc2c(N)cccc12 [5-aminonaphthalene-1-carbonitrile], the melting point is reported as 137 °C. Compound Nc1cc(Br)cnc1N [5-bromo-2,3-diaminopyridine] has a melting point of 157 °C. With O=C(O)c1ccc(Br)o1 [5-bromo-2-furoic acid] the melting point was 190 °C. Work on Brc1ccc2sccc2c1 [5-bromobenzo[b]thiophene] yielded a melting point of 46 °C. In the case of O=C1Cc2cccc(Br)c21 [5-bromobicyclo[4.2.0]octa-1,3,5-trien-7-one], the melting point is reported as 82 °C. Work on O=C(Cl)c1cncc(Br)c1 [5-bromonicotinoyl chloride] yielded a melting point of 73 °C. Compound O=C(O)c1cc(Br)ccc1O [5-bromosalicylic acid] has a melting point of 168 °C. With O=C(O)c1ccc(Br)s1 [5-bromothiophene-2-carboxylic acid] the melting point was 140 °C.

Source: the Bradley open melting point set (2014)
